# Source: the supplement of paper PMC6045584
# ± gives the standard deviation of the averaged measurements.
# What was measured:
# IMATINIB = compound: Cc1ccc(NC(=O)c2ccc(CN3CCN(C)CC3)cc2)cc1Nc1nccc(-c2cccnc2)n1 [IMATINIB]; assay: surviving fraction relative to DMSO-only wells; higher = less growth inhibition; conditions: exposure time: 5 days
# Summary of the method: (§1)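 Tumour cell lines were seeded in log phase at 250–500 cells per well into 384-well plates. Starting 24 hours later, inhibitors were present continuously for five days at 0.5, 1, 5, 10, 50, 100, 500 and 1000 nM. Surviving fraction, from CellTiter-Glo luminescence, is normalised to the median of DMSO-only wells. Three screens per line were required, with replicate Pearson r >0.7 and median Z' >0.3 for a line to be kept.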
# BMN-673 = compound: Cn1ncnc1[C@H]1c2n[nH]c(=O)c3cc(F)cc(c23)N[C@@H]1c1ccc(F)cc1 [BMN-673]; assay: as above; conditions: exposure time: 5 days
# Summary of the method: as §1
Test System,surviving fraction (IMATINIB; 0.5 nM),surviving fraction (IMATINIB; 5 nM),surviving fraction (IMATINIB; 10 nM),surviving fraction (IMATINIB; 50 nM),surviving fraction (IMATINIB; 100 nM),surviving fraction (IMATINIB; 500 nM),surviving fraction (IMATINIB; 1000 nM),surviving fraction (BMN-673; 0.5 nM),surviving fraction (BMN-673; 1 nM),surviving fraction (BMN-673; 5 nM),surviving fraction (BMN-673; 10 nM),surviving fraction (BMN-673; 50 nM),surviving fraction (BMN-673; 100 nM),surviving fraction (BMN-673; 500 nM),surviving fraction (BMN-673; 1000 nM),surviving fraction (IMATINIB; 1 nM)
CAL51 BREAST,1.04 ± 0.096,1.08 ± 0.036,1.06 ± 0.055,1.08 ± 0.024,1.06 ± 0.033,1.1 ± 0.012,1.09 ± 0.054,0.941 ± 0.037,0.807 ± 0.065,0.548 ± 0.014,0.389 ± 0.021,0.219 ± 0.026,0.146 ± 0.027,0.0603 ± 0.01,0.0523 ± 0.0019,–
OSHN BONE,1.13 ± 0.024,1.1 ± 0.033,1.12 ± 0.012,1.16 ± 0.013,1.14 ± 0.017,–,1.1 ± 0.051,1.08 ± 0.024,1.04 ± 0.016,0.996 ± 0.023,0.9107 ± 0.004,0.742 ± 0.011,0.573 ± 0.081,0.197 ± 0.012,0.145 ± 0.009,1.126 ± 0.0095
A549 LUNG,1.09 ± 0.035,1.11 ± 0.041,1.09 ± 0.041,1.11 ± 0.049,1.1 ± 0.033,–,1.12 ± 0.016,1.08 ± 0.026,1.1 ± 0.014,1.08 ± 0.033,1.07 ± 0.028,1.13 ± 0.08,1.1 ± 0.025,1.05 ± 0.043,0.972 ± 0.048,1.07 ± 0.026
SUM149 BREAST,1.04 ± 0.08,1.07 ± 0.079,1.08 ± 0.072,–,0.951 ± 0.07,0.866 ± 0.045,1.01 ± 0.046,0.857 ± 0.051,0.721 ± 0.068,0.301 ± 0.019,0.226 ± 0.023,0.176 ± 0.017,0.163 ± 0.014,0.149 ± 0.0045,0.145 ± 0.024,1.11 ± 0.047
SUM44 BREAST,1.3 ± 0.48,1.24 ± 0.36,1.23 ± 0.28,1.27 ± 0.31,–,1.26 ± 0.34,1.11 ± 0.23,1.16 ± 0.29,1.02 ± 0.16,0.976 ± 0.12,0.798 ± 0.029,1.03 ± 0.21,0.98 ± 0.15,1.09 ± 0.2,0.988 ± 0.11,–
BT549 BREAST,1.15 ± 0.1,–,1.12 ± 0.044,–,1.17 ± 0.04,1.21 ± 0.11,1.1 ± 0.15,1.07 ± 0.05,1.03 ± 0.019,1.03 ± 0.11,0.797 ± 0.044,0.755 ± 0.051,0.652 ± 0.079,0.438 ± 0.04,0.323 ± 0.019,1.13 ± 0.068
YAMATO SYNOVIAL,1.29 ± 0.055,1.28 ± 0.14,1.26 ± 0.078,1.23 ± 0.054,1.27 ± 0.15,1.1 ± 0.11,1.05 ± 0.073,1.08 ± 0.09,1.05 ± 0.035,1.05 ± 0.07,0.852 ± 0.039,0.788 ± 0.014,0.675 ± 0.035,0.503 ± 0.029,0.452 ± 0.013,1.19 ± 0.14
VP229 BREAST,1.29 ± 0.17,1.12 ± 0.098,1.2 ± 0.3,1.35 ± 0.1,–,1.16 ± 0.064,1.27 ± 0.12,1.09 ± 0.33,1.09 ± 0.16,1.1 ± 0.12,0.995 ± 0.091,0.969 ± 0.026,0.922 ± 0.17,0.951 ± 0.1,0.873 ± 0.19,1.22 ± 0.091
SJSA1 BONE,1.65 ± 0.051,1.64 ± 0.1,1.83 ± 0.1,0.61 ± 0.12,1.36 ± 0.01,1.65 ± 0.039,1.33 ± 0.024,1.67 ± 0.078,1.72 ± 0.018,1.72 ± 0.12,1.86 ± 0.1,0.969 ± 0.054,1.27 ± 0.022,1.46 ± 0.06,1.12 ± 0.031,1.71 ± 0.075
SCC90 HEADNECK,–,1.07 ± 0.011,1.01 ± 0.073,1.17 ± 0.076,1.14 ± 0.08,1.17 ± 0.067,1.26 ± 0.082,1.05 ± 0.046,1.02 ± 0.031,1.01 ± 0.067,1.02 ± 0.059,0.813 ± 0.04,0.8 ± 0.13,1.17 ± 0.15,1.15 ± 0.033,–
KPD BONE,1.077 ± 0.008,1.11 ± 0.043,1.1 ± 0.082,1.16 ± 0.067,1.05 ± 0.097,–,0.99 ± 0.023,0.971 ± 0.046,0.877 ± 0.053,0.814 ± 0.045,0.463 ± 0.28,0.531 ± 0.03,0.437 ± 0.02,0.338 ± 0.01,0.3337 ± 0.0032,0.983 ± 0.068
SG32 HEADNECK,–,1.2 ± 0.18,–,–,1 ± 0.14,1.17 ± 0.052,1.21 ± 0.16,1.13 ± 0.067,0.975 ± 0.17,1.08 ± 0.29,0.985 ± 0.094,0.872 ± 0.12,1.22 ± 0.82,0.622 ± 0.0068,0.49 ± 0.044,–
MDAMB157 BREAST,–,1.02 ± 0.018,–,–,0.939 ± 0.021,0.956 ± 0.018,0.855 ± 0.11,0.999 ± 0.13,0.944 ± 0.081,0.844 ± 0.084,0.795 ± 0.1,0.541 ± 0.01,0.392 ± 0.01,0.228 ± 0.017,0.257 ± 0.036,1.01 ± 0.028
HCC1395 BREAST,1.23 ± 0.023,1.24 ± 0.097,1.36 ± 0.13,1.19 ± 0.16,1.36 ± 0.049,1.15 ± 0.068,1.11 ± 0.29,1 ± 0.13,0.991 ± 0.081,0.86 ± 0.054,0.967 ± 0.045,0.892 ± 0.064,0.8195 ± 0.0048,0.715 ± 0.039,0.637 ± 0.12,1.06 ± 0.11
SIHA CERVIX,1.1 ± 0.04,–,1.09 ± 0.065,1.15 ± 0.073,1.17 ± 0.054,1.12 ± 0.076,–,1.01 ± 0.055,1.03 ± 0.053,1.15 ± 0.062,1.05 ± 0.013,0.929 ± 0.038,0.784 ± 0.13,0.602 ± 0.035,0.454 ± 0.041,1.1 ± 0.054
MG63 BONE,1.08 ± 0.028,1.1 ± 0.03,1.09 ± 0.035,1.09 ± 0.053,1.08 ± 0.034,–,–,1.03 ± 0.023,0.988 ± 0.026,0.989 ± 0.028,0.917 ± 0.017,0.646 ± 0.014,0.432 ± 0.039,0.285 ± 0.0053,0.193 ± 0.029,1.05 ± 0.029
HOSMNG BONE,1.04 ± 0.12,0.994 ± 0.085,1 ± 0.019,1.09 ± 0.1,1.14 ± 0.073,–,1.07 ± 0.14,1.07 ± 0.056,1.04 ± 0.029,0.968 ± 0.017,1.01 ± 0.019,1.03 ± 0.031,1.05 ± 0.046,0.849 ± 0.047,0.645 ± 0.023,1.01 ± 0.067
C33A CERVIX,0.921 ± 0.058,–,1.09 ± 0.1,1.15 ± 0.08,–,1.05 ± 0.022,1.08 ± 0.045,0.995 ± 0.028,0.968 ± 0.019,0.744 ± 0.079,0.655 ± 0.046,0.422 ± 0.035,0.332 ± 0.051,0.19 ± 0.015,0.172 ± 0.023,0.999 ± 0.073
